From US20240228448A1 (Washington University, priority 2021, published 2024)

What was measured:
[1] = Log D7.4 measurement (1-octanol/PBS buffer); type: physicochemical; conditions: pH 7.4, n=3
Experimental: Partition coefficient was measured by mixing the [^18F]FS1P1 sample with 3 mL each of 1-octanol and buffer that is 0.1 M phosphate and pH equals 7.4 in a test tube. The mixture in the test tube was vortexed for 20 sec followed by centrifugation for 1 min at room temperature. Then 2 mL of the organic layer was transferred to a second test tube, and 1 mL of 1-octanol and 3 mL of PBS buffer were added. The resulting mixture was vortexed for 20 sec, followed by centrifugation for 1 min at room temperature. Then 1 mL of the organic and aqueous layer were taken separately for measurement. The radioactivity content values (count per minute) of two samples (1 mL each) from the 1-octanol and buffer layers were counted using a gamma counter. The partition coefficient Log D7.4 was determined by calculating as the decimal logarithm the ratio of cpm/mL between 1-octanol and PBS buffer. The measurements were repeated three times. The value of the partition coefficient is 2.62±0.31.

[2] = MicroPET brain study in cynomolgus macaque; conditions: macaque brain
Experimental: Using a Focus 220 microPET scanner to collect dynamic scans for 2 hours after intravenous injection of ˜0.35 GBq dose into male macaques. Radiometabolites were measured from arterial blood samples collected at 5, 15, 30, and 60 min post-injection of radiotracer. The HPLC eluent was collected, and fractions were counted in a gamma counter.
Male macaques (˜10 kg) were used for PET imaging data acquisition with a microPET Focus 220 scanner (Siemens Inc., Knoxville, TN). Animals were anesthetized using ketamine and glycopyrrolate and maintained with inhalation of isoflurane. Core temperature was kept at 37° C. with a heated water blanket. The head was secured in a customized head holder. […] Emission data were corrected for dead time, scatter, and attenuation and then reconstructed. […] Predefined brain regions of interest from the template were applied to the co-registered PET image to obtain regional time-activity curves. The measurement of the brain uptake of radiotracer was standardized to body weight and the dose of radioactivity injected to yield a standardized uptake value (SUV).
The brain uptakes of these tracers were measured by Focus 220 microPET scanner to collect dynamic scans for 2 hours after intravenous injection of ˜0.35 GBq dose into male cynomolgus macaques (8-9 kg).

[3] = Radiometabolite analysis of nonhuman primate plasma samples; type: in vivo, macaque; conditions: for percentage of the parental radiotracer of total radioactivity: macaque plasma
Experimental: HPLC radiometabolite analysis of the macaque plasma samples collected at different time points post-injection of [^18F]FS1P1 was performed as previously reported (H. Liu, et al., Mol. Imaging Biol., 2020, 22, 1362-1369.). A male macaque (˜10 kg) was intravenously injected with ˜0.35 GBq of [^18F]FS1P1. […] Plasma (400 μL) was then collected and mixed with 1.2 mL ice-cold acetonitrile to deproteinize. […] The eluted fractions were collected at one-minute intervals for a total of 16 minutes, the radioactivity of each fraction collection was counted in an automated gamma counter (Beckman, Brea, CA), and results were corrected by background radioactive counts and physical decay. The chromatography was regenerated represented by the percentage that was calculated by radioactivity count of every minute collection divided by the total injection amount on the HPLC system and multiplied by 100.

[4] = biological target: T1, S1P1 (Rattus norvegicus, UniProt P48303); assay: In vitro autoradiography of rat spinal cord and brain sections with CS1P1 blocking; type: binding; conditions: blocked by CS1P1 (5 μM), in words
T1 construct: conducted on rat spinal cord and brain section incubated with [^18F]FS1P1; from tissue; host or cells: rat brain (cortex, hippocampus) and spinal cord sections
T1 sequence (P48303 whole entry): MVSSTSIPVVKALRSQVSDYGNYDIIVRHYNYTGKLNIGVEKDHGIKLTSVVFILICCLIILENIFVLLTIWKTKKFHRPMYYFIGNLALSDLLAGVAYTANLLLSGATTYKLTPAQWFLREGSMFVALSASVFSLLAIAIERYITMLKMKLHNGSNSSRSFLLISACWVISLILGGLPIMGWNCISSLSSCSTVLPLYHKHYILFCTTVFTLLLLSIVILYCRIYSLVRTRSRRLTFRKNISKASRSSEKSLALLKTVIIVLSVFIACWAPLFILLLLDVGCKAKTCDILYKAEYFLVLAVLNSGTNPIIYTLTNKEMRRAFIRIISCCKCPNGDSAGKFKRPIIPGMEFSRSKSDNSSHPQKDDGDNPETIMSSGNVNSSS

Structure (SMILES): Cc1ccccc1-c1ccc(-c2nc(-c3ccc(CN(C)CCC(=O)O)c([18F])c3)no2)cc1C(F)(F)F [[^18F]FS1P1]
- Log D7.4 [1]: 2.62±0.31
- logD [1]: 2.62 ± 0.31
- brain uptake, standard uptake value (SUV) ([2]; 120 min post-injection): ~2.3
- brain uptake, maximum SUV value ([2]; from 20 to 120 min post-injection): ~2.3
- radiometabolites in macaque plasma ([3]; 5, 15, 30, and 60 min post injection, in words): No major metabolite was detected
- percentage of the parental radiotracer of total radioactivity ([3]; 5 min post-injection): 96%
- percentage of the parental radiotracer of total radioactivity ([3]; 15 min post-injection): 96%
- percentage of the parental radiotracer of total radioactivity ([3]; 30 min post-injection): 94%
- percentage of the parental radiotracer of total radioactivity ([3]; 60 min post-injection): 88%
- autoradiography signal and blocking [4]: strong signal, which was blocked
